Positions count from the first letter of the chain named. Like-named read-outs stand apart in the source and are kept apart here. Values belong to the molecule of their own block, whether it stands above or below them. Non-standard residues stand in square brackets, D forms with d. Residues, ends and D or L forms follow the SMILES beside them. No end group written: not given here.
Tests used:
MAS [1] = test system: MAS; parameters: method as in ref [8] (a number printed in a supplementary file, which may have a reference list of its own: not looked up in the article's list); details: Bovine MAS; ref [8]; cited from earlier work
MAS [2] = biological target: T1, MAS (Homo sapiens, UniProt P04201); test: FLIPR calcium assay, induced myc-tagged WT MAS HEK293 stable cell line; assay type: cell-based; details: for EC50, Calcium assay / EC50: induced cells
T1 construct: expressed in transfected cells
T1 sequence (P04201 1-325): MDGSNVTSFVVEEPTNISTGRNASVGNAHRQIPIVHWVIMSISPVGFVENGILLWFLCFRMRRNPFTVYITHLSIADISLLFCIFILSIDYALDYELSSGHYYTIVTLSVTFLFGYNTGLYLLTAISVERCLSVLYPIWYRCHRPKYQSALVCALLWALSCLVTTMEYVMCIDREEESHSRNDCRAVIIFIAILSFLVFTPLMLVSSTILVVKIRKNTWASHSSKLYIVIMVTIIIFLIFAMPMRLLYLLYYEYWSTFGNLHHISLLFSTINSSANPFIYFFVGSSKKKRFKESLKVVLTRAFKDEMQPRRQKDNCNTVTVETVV
Method: The assay was performed using FLIPR Calcium 5 assay kit (Molecular Devices, Sunnyvale, CA). For calcium measurements, cells at a density of 125,000 cells/well in 100 µl medium were seeded onto a 96-well clear bottom black cell culture plate that was pre-coated with poly-L-lysine. In the calcium assays the cell density of 125,000 cells/well was consistently maintained to minimize variability between independent experiments. The cells were seeded in induction media to induce MAS expression or in complete media for negative controls. The plate was maintained in a cell culture incubator for 26–28 h. The cells were then serum starved for 2 h by replacing the medium with 100 µl of serum free DMEM. In the case of pre-treatment with pan-inhibitor of G protein signaling, BIM-46187, the cells were initially serum starved for 1 h by replacing the medium with 50 µl of serum free DMEM. After 1 h, 50 µl of BIM-46187 was added to the cells to a final concentration of 25 µM and treated for another 1 h. Following serum starvation, 100 µl of calcium sensitive dye along with 2x (2.5 mM final concentration) probenecid (Life Technologies, Grand Island, NY) was added to the cells. During this step, AR-inverse agonist or BIM-46187 was also added at desired concentrations to the calcium dye preparation in case of experiments where cells were pre-treated with these inhibitors. The cells were maintained for one hour in the cell culture incubator. Following this, the 96-well plate containing cells loaded with calcium dye and a U-bottom 96-well plate containing ligands at 5x the desired final concentration in D-PBS (1.47 mM KH2PO4, 138 mM NaCl, 2.67 mM KCl, 8.1 mM Na2HPO4, pH 7.3) were allowed to equilibrate for 15 min on a FlexStation 3 instrument (Molecular Devices, Sunnyvale, CA) at 37°C. The plates were further equilibrated on the instrument for 5 min with the lids removed from the plates. The instrument was programmed in FLEX mode to add ligands (50 µl at 5x concentration) to the cells and to monitor the fluorescence before and after adding the ligands. In re-stimulation and antagonism assays the instrument is programmed to add 35 µl of first ligand followed by addition of the second ligand (35 µl) after 10 min. […] Therefore, when using 5x ligand stock the maximum AR-agonist concentration that could be tested was 10 µM.
In the calcium assays, the maximum response and minimum response values in relative fluorescence units (RFU) were extracted by subtracting the corresponding baseline value wherein baseline is defined as the average fluorescence of all time points before addition of ligand.
(§1) The kinetic parameter t1/2 (time taken to reach half of the maximum response) was determined using SoftMax Pro software supplied with the FlexStation 3 instrument (Molecular Devices, Sunnyvale, CA).
For re-stimulation assays, the data is expressed as the percentage of maximum agonist stimulation to allow for ready comparison between individual experiments. […] For all the assays, the EC50 and IC50 values were estimated by fitting the data to a three parameter dose response using GraphPad Prism software (GraphPad, La Jolla, CA).

MAS [3] = biological target: T1, MAS; test: HTRF IP1 assay, induced myc-tagged WT MAS HEK293 stable cell line; assay type: cell-based; details: WT MAS, induced cells
MAS [4] = biological target: T1, MAS; test: SRF-RE luciferase reporter assay (Gα12-dependent), induced WT MAS stable cell line; assay type: cell-based; details: induced cells
Method: The luciferase assay was performed using pGL4 luciferase reporter vectors and Dual-Glo Luciferase Assay System (Promega, Madison, WI). For this assay, the inducible MAS stable cells were initially plated in a 10 cm plate and left overnight in a cell culture incubator. The following day the cells were transfected with 5 µg of pGL4.34 plasmid containing serum response factor response element (SRF-RE)-firefly luciferase reporter gene and 1 µg of pGL4.73 plasmid containing renilla luciferase (as a transfection efficiency control). […] After 8 h of transfection and induction, the cells were seeded onto a 96-well clear bottom black cell culture plate (pre-coated with poly-L-lysine) at a density of 125,000 cells/well in 100 µl of minimal medium (with reduced serum of 0.5%). The plate was maintained in a cell culture incubator for 18–20 h. At this point 50 µl of media in the cells was replaced with 50 µl of serum free media containing ligands at 2x the desired concentration and incubated for an additional 6 h. Finally, the luciferase activity in the cells was measured according the protocol provided by the manufacturer. The luminescence measurements (RLU) in the cells were obtained on FlexStation 3 instrument.
For re-stimulation assays, the data is expressed as the percentage of maximum agonist stimulation to allow for ready comparison between individual experiments. […] In the luciferase assay, the luminescence measurements (RLU) are presented as a ratio of firefly to renilla luciferase activity. For all the assays, the EC50 and IC50 values were estimated by fitting the data to a three parameter dose response using GraphPad Prism software (GraphPad, La Jolla, CA).

untagged WT MAS = biological target: T2, untagged WT MAS (Homo sapiens, UniProt P04201); test: Calcium assay, untagged WT MAS inducible HEK293 stable cell line; assay type: cell-based; details: up to 250 µM
T2 construct: expressed in transfected cells
T2 sequence (P04201 1-325): T1 sequence (P04201 1-325)
Method: The assay was performed using FLIPR Calcium 5 assay kit (Molecular Devices, Sunnyvale, CA). For calcium measurements, cells at a density of 125,000 cells/well in 100 µl medium were seeded onto a 96-well clear bottom black cell culture plate that was pre-coated with poly-L-lysine. In the calcium assays the cell density of 125,000 cells/well was consistently maintained to minimize variability between independent experiments. The cells were seeded in induction media to induce MAS expression or in complete media for negative controls. The plate was maintained in a cell culture incubator for 26–28 h. The cells were then serum starved for 2 h by replacing the medium with 100 µl of serum free DMEM. In the case of pre-treatment with pan-inhibitor of G protein signaling, BIM-46187, the cells were initially serum starved for 1 h by replacing the medium with 50 µl of serum free DMEM. After 1 h, 50 µl of BIM-46187 was added to the cells to a final concentration of 25 µM and treated for another 1 h. Following serum starvation, 100 µl of calcium sensitive dye along with 2x (2.5 mM final concentration) probenecid (Life Technologies, Grand Island, NY) was added to the cells. During this step, AR-inverse agonist or BIM-46187 was also added at desired concentrations to the calcium dye preparation in case of experiments where cells were pre-treated with these inhibitors. The cells were maintained for one hour in the cell culture incubator. Following this, the 96-well plate containing cells loaded with calcium dye and a U-bottom 96-well plate containing ligands at 5x the desired final concentration in D-PBS (1.47 mM KH2PO4, 138 mM NaCl, 2.67 mM KCl, 8.1 mM Na2HPO4, pH 7.3) were allowed to equilibrate for 15 min on a FlexStation 3 instrument (Molecular Devices, Sunnyvale, CA) at 37°C. The plates were further equilibrated on the instrument for 5 min with the lids removed from the plates. The instrument was programmed in FLEX mode to add ligands (50 µl at 5x concentration) to the cells and to monitor the fluorescence before and after adding the ligands. […]

MAS [5] = test system: MAS; parameters: method as in ref [2] (a number printed in a supplementary file, which may have a reference list of its own: not looked up in the article's list); details: Mouse MAS; ref [2]; cited from earlier work
MAS [6] = test system: MAS; parameters: method as in ref [2] (a number printed in a supplementary file, which may have a reference list of its own: not looked up in the article's list); details: Mouse MAS; ref [2]; cited from earlier work; remark: listed apart in the source
MAS [7] = biological target: T1, MAS; parameters: method as in ref [3] (a number printed in a supplementary file, which may have a reference list of its own: not looked up in the article's list); details: ref [3]; cited from earlier work
MAS F112A mutant = biological target: T3, MAS F112A mutant (Homo sapiens, UniProt P04201, F112A); test: Calcium assay, F112A MAS mutant stable cell line; assay type: cell-based
T3 construct: expressed in transfected cells
T3 sequence (P04201 1-325 F112A): T1 sequence (P04201 1-325) with F112A
Method: (§2) The assay was performed using FLIPR Calcium 5 assay kit (Molecular Devices, Sunnyvale, CA). For calcium measurements, cells at a density of 125,000 cells/well in 100 µl medium were seeded onto a 96-well clear bottom black cell culture plate that was pre-coated with poly-L-lysine. In the calcium assays the cell density of 125,000 cells/well was consistently maintained to minimize variability between independent experiments. The cells were seeded in induction media to induce MAS expression or in complete media for negative controls. The plate was maintained in a cell culture incubator for 26–28 h. The cells were then serum starved for 2 h by replacing the medium with 100 µl of serum free DMEM. In the case of pre-treatment with pan-inhibitor of G protein signaling, BIM-46187, the cells were initially serum starved for 1 h by replacing the medium with 50 µl of serum free DMEM. After 1 h, 50 µl of BIM-46187 was added to the cells to a final concentration of 25 µM and treated for another 1 h. Following serum starvation, 100 µl of calcium sensitive dye along with 2x (2.5 mM final concentration) probenecid (Life Technologies, Grand Island, NY) was added to the cells. During this step, AR-inverse agonist or BIM-46187 was also added at desired concentrations to the calcium dye preparation in case of experiments where cells were pre-treated with these inhibitors. The cells were maintained for one hour in the cell culture incubator. […] The instrument was programmed in FLEX mode to add ligands (50 µl at 5x concentration) to the cells and to monitor the fluorescence before and after adding the ligands. […]
as §1
(§3) For re-stimulation assays, the data is expressed as the percentage of maximum agonist stimulation to allow for ready comparison between individual experiments. […]

MAS I191A mutant = biological target: T4, MAS I191A mutant (Homo sapiens, UniProt P04201, I191A); test: Calcium assay, I191A MAS mutant stable cell line; assay type: cell-based
T4 construct: expressed in transfected cells
T4 sequence (P04201 1-325 I191A): T1 sequence (P04201 1-325) with I191A
Method: as §2, §1, §3

MAS M244A mutant = biological target: T5, MAS M244A mutant (Homo sapiens, UniProt P04201, M244A); test: Calcium assay, M244A MAS mutant stable cell line; assay type: cell-based
T5 construct: expressed in transfected cells
T5 sequence (P04201 1-325 M244A): T1 sequence (P04201 1-325) with M244A
Method: as §2, §1, §3

MAS T270A mutant = biological target: T6, MAS T270A mutant (Homo sapiens, UniProt P04201, T270A); test: Calcium assay, T270A MAS mutant stable cell line; assay type: cell-based
T6 construct: expressed in transfected cells
T6 sequence (P04201 1-325 T270A): T1 sequence (P04201 1-325) with T270A
Method: as §2, §1, §3

MAS [8] = details: Mouse MAS, cited from earlier work
MAS [9] = test system: MAS; parameters: method as in ref [12] (a number printed in a supplementary file, which may have a reference list of its own: not looked up in the article's list); details: Rat MAS; ref [12]; read-out: EC50 (Calcium assay); cited from earlier work
[10] = biological target: T7, myc-tagged wild-type human MAS receptor (human) (UniProt P04201)
T7 sequence: T1 sequence (P04201 1-325)

MAS [11] = biological target: T1, MAS; parameters: method as in ref [10,11] (a number printed in a supplementary file, which may have a reference list of its own: not looked up in the article's list); details: ref [10,11], read-out: EC50 (Calcium assay); cited from earlier work
[12] = biological target: T7, myc-tagged wild-type human MAS receptor (human); remark: listed apart in the source
[13] = WT MAS, t1/2 at 1000 µM (1 mM) ligand concentration
[14] = WT MAS, t1/2 at 100 µM ligand concentration

Molecule: CCNC(=O)NS(=O)(=O)c1sc(CC(C)C)cc1-c1ccc(Cn2c(-c3ccccc3)nc(OC)c2C=O)cc1 [AVE 0991]
Remarks: Ang(1-7)-like effects (MAS [1]): Mimics Ang(1-7) effects

Molecule: CC[C@H](C)[C@H](NC(=O)[C@H](Cc1ccc(O)cc1)NC(=O)[C@@H](NC(=O)[C@H](CCCNC(=N)N)NC(=O)[C@@H](N)CC(=O)O)C(C)C)C(=O)N[C@@H](Cc1c[nH]cn1)C(=O)N1CCC[C@H]1C(=O)O [Ang(1–7), angiotensin (1–7)]
EC50, Calcium assay (MAS [2]; WT MAS): cbd | t1/2, Calcium assay (MAS [2]; [13]): 11.8 ± 0.6 s | EC50, IP1 assay (MAS [3]): cbd | EC50, Luciferase assay (MAS [4]): cbd | Calcium response (untagged WT MAS): no response | Type (Arachidonic acid release assay) (MAS [5]): Endogenous agonist | Effect in aortic rings (MAS [6]): Vasodilator effect in aortic rings

Molecule: CC[C@H](C)[C@H](NC(=O)[C@H](Cc1ccc(O)cc1)NC(=O)[C@@H](NC(=O)[C@H](CCCNC(=N)N)NC(=O)[C@@H](N)CC(=O)O)C(C)C)C(=O)N[C@@H](Cc1c[nH]cn1)C(=O)N1CCC[C@H]1C(N)=O [Ang(1–7)-amide]
EC50, Calcium assay (MAS [2]; WT MAS): cbd | t1/2, Calcium assay (MAS [2]; [13]): 11.4 ± 1.0 s

Molecule: CC[C@H](C)[C@H](NC(=O)[C@H](Cc1ccc(O)cc1)NC(=O)[C@@H](N)C(C)C)C(=O)N[C@@H](Cc1cnc[nH]1)C(=O)N1CCC[C@H]1C(=O)N[C@@H](Cc1ccccc1)C(=O)O [AngIV / Ang(3–8), Angiotensin IV]
EC50, Calcium assay (MAS [2]; WT MAS): cbd | t1/2, Calcium assay (MAS [2]; [13]): 10.4 ± 0.3 s | Type (Arachidonic acid release assay) (MAS [7]): Agonist

Molecule: CC[C@H](C)[C@H](NC(=O)[C@H](Cc1ccc(O)cc1)NC(=O)[C@@H](N)C(C)C)C(=O)N[C@@H](Cc1c[nH]cn1)C(=O)N1CCC[C@H]1C(=O)N[C@@H](Cc1ccccc1)C(N)=O [AngIV-amide]
EC50 (MAS [2]; WT MAS): 24.4 ± 1.5 µM | t1/2, Calcium assay (MAS [2]; [14]): 13.7 ± 0.9 s

Molecule: N[C@@H](CSSC[C@H](N)C(=O)N1CCn2cc(-c3ccccc3)nc2[C@@H]1CC1CCCCC1)C(=O)N1CCn2cc(-c3ccccc3)nc2[C@@H]1CC1CCCCC1 [BIM-46187]
Effect of pre-treatment on AR-agonist calcium signal (MAS [2]; 25 µM pre-treatment): complete loss of signal

Molecule: CC(C)C[C@H](NC(=O)[C@@H](N)Cc1ccccc1)C(=O)N[C@@H](Cc1ccccc1)C(=O)N[C@@H](CCC(N)=O)C(=O)N1CCC[C@H]1C(=O)N[C@@H](CCC(N)=O)C(=O)N[C@@H](CCCN=C(N)N)C(=O)N[C@@H](Cc1ccccc1)C(N)=O [NPFF, Neuropeptide FF]
t1/2 (time taken to reach half of the maximal calcium response), Calcium assay (MAS [2]; WT MAS): 8.5 ± 0.3 s | t1/2, Calcium assay (MAS F112A mutant): 7.7±2.9^#∧ s | t1/2, Calcium assay (MAS I191A mutant): 9.0 ± 0.4 s | t1/2, Calcium assay (MAS M244A mutant): cbd | t1/2, Calcium assay (MAS T270A mutant): 9.3±2.0^#∧ s

Molecule: MBP7: peptide agonist, sequence KAQLRRLS
EC50 (MAS [9]): 36.4 µM

Molecule: P33 / CGEN-857: peptide agonist, sequence SMCHRWSRAVLFPAAHRP
EC50 (MAS [11]): 1000 nM

Molecule: P61 / CGEN-856: peptide agonist, sequence FLGYCIYLNRKRRGDPAFKRRLRD
EC50 (MAS [11]): 570 nM

Molecule: VYIHP [Ang(3–7)] [listing 1 of 2 here]
EC50, Calcium assay (MAS [2]; WT MAS): cbd

Molecule: VYIHP [Ang(3–7)] [listing 2 of 2 here]
t1/2, Calcium assay (MAS [2]; [13]): 15.0 ± 0.5 s

Molecule: [^DPro^7]-Ang(1-7)
Remarks: effect on Ang(1-7) response (MAS [8]; ref [6]): Inhibits Ang(1-7) response

B4: AngIV-amide (peptide)
peptide: VYIHPF-NH2
EC50, calcium assay, induced WT MAS stable HEK293 cells (response incompletely inhibited by AR-inverse agonist; non-specific response in un-induced cells at 1 mM) [12]: 24.4 µM

B5: AngIII (peptide)
peptide: RVYIHPF
EC50, calcium assay, induced WT MAS stable HEK293 cells (response incompletely inhibited by AR-inverse agonist; non-specific response in un-induced cells at 1 mM) [12]: 30.7 µM

Second part, led by results:

EC50 (MAS [2]; WT MAS): 193 ± 59 µM | t1/2, Calcium assay (MAS [2]; [14]): 18.2 ± 1.2 s
Molecule: CC[C@H](C)[C@H](NC(=O)[C@H](Cc1ccc(O)cc1)NC(=O)[C@@H](NC(=O)[C@H](CCCN=C(N)N)NC(=O)CNC)C(C)C)C(=O)N[C@@H](Cc1c[nH]cn1)C(=O)N1CCC[C@H]1C(N)=O [[Sar^1]-Ang(1–7)-amide]

EC50 (MAS [2]; WT MAS): 2.4 ± 0.3 µM
Molecule: CC(C)C[C@H](NC(=O)[C@H](N)Cc1ccc(O)cc1)C(=O)N(C)[C@@H](Cc1ccccc1)C(=O)N[C@@H](CCC(N)=O)C(=O)N1CCC[C@H]1C(=O)N[C@@H](CCC(N)=O)C(=O)N[C@@H](CCCN=C(N)N)C(=O)N[C@@H](Cc1ccccc1)C(N)=O [[^DY^1] [^NMeF^3]-NPFF] (HELM PEPTIDE1{[dY].L.[meF].Q.P.Q.R.F.[am]}$$$$V2.0)

EC50, Calcium assay (MAS [2]; WT MAS): cbd
Molecule: A779: Ang(1–7) analog, sequence DRVYIH^DA (DRVYIH[dA])
t1/2, Calcium assay (MAS [2]; [14]): cbd ^# | Remarks: effect on Ang(1-7) response (MAS [8]; ref [2,5]): Inhibits Ang(1-7) response

EC50, calcium assay, induced WT MAS stable HEK293 cells [10]: 3 µM
Molecule: NPFF-C (peptide)

EC50 (MAS [2]; WT MAS): 12.2 ± 2 µM
Molecule: YLFQPQRF-NH2 [[Y^1]-NPFF]

EC50, calcium assay, induced WT MAS stable HEK293 cells [10]: 12.2 µM
B1: [Y^1]-NPFF (peptide)
peptide: YLFQPQRF-NH2

EC50, calcium assay, induced WT MAS stable HEK293 cells [12]: 193 µM
B2: [Sar^1]-Ang(1–7)-amide (peptide)
peptide: GRVYIHP
HELM: PEPTIDE1{[Sar].R.V.Y.I.H.P.[am]}$$$$V2.0; N-terminus assumed
SMILES: CC[C@H](C)[C@H](NC(=O)[C@H](Cc1ccc(O)cc1)NC(=O)[C@@H](NC(=O)[C@H](CCCNC(=N)N)NC(=O)CNC)C(C)C)C(=O)N[C@@H](Cc1c[nH]cn1)C(=O)N1CCC[C@H]1C(N)=O

EC50, calcium assay, induced WT MAS stable HEK293 cells [10]: 2.4 µM
B3: [^DY^1] [^NMeF^3]-NPFF (peptide)
peptide: YLFQPQRF
HELM: PEPTIDE1{[dY].L.[meF].Q.P.Q.R.F.[am]}$$$$V2.0; N-terminus assumed
SMILES: CC(C)C[C@H](NC(=O)[C@H](N)Cc1ccc(O)cc1)C(=O)N(C)[C@@H](Cc1ccccc1)C(=O)N[C@@H](CCC(N)=O)C(=O)N1CCC[C@H]1C(=O)N[C@@H](CCC(N)=O)C(=O)N[C@@H](CCCNC(=N)N)C(=O)N[C@@H](Cc1ccccc1)C(N)=O
